In ChEMBL document CHEMBL5335779, “The research progress of SARS-CoV-2 main protease inhibitors from 2020 to 2022” (Eur J Med Chem, 2023):
Where a SMILES comes first, the peptide text is derived from it. The star is where a group is joined. Boc = CC(C)(C)OC(=O)*; OtBu = CC(C)(C)O*; CH2Cl = ClC*

Legend:
[1] = biological target: T1, Replicase polyprotein 1ab (Severe acute respiratory syndrome coronavirus 2, UniProt P0DTD1); assay: Inhibition of C-terminal SARS-CoV-2 Main protease expressed in Escherichia coli using ALNDFSNSGSDVLYQPPQTSITSAVLQ/SGFRKMAFPS-NH2 as substrate preincubated for 5 mins followed by compound addition and measured after 20 mins by FRET analysis
[2] = biological target: T1, Replicase polyprotein 1ab; assay: Inhibition of GST-tagged SARS-CoV-2 Main protease expressed in Escherichia coli BL21 using Dabcyl-Val-Asn-Ser-Thr-Leu-Gln-Ser-Gly-Leu-Arg-Lys-EDANS as fluorogenic substrate preincubated for 10 mins followed by substrate addition and measured after 1 hrs by FRET assay
[3] = biological target: T1, Replicase polyprotein 1ab; assay: Binding affinity to SARS-CoV-2 Main protease assessed as inhibition constant
[4] = biological target: T1, Replicase polyprotein 1ab; assay: Inhibition of N-terminal 6His-tagges SARS-CoV-2 PLpro Wuhan (1524 to 1883 residues) expressed in Escherichia coli BL21(DE3) using Arg-Leu-Arg-Gly-Gly-AMC as substrate preincubated for 5 mins followed by substrate addition measured after 6 mins by fluorescence based assay
[5] = biological target: T1, Replicase polyprotein 1ab; assay: Inhibition of N-terminal SARS-CoV-2 Main protease expressed in Escherichia coli BL21 (DE3) by using MCA-AVLQSGFR-Lys (Dnp)-Lys-NH as fluorogenic substrate by FRET assay
[6] = tested on: SARS-CoV-2; assay: Antiviral activity against SARS-CoV-2 USA-WA1/2020 infected in Vero E6 cells assessed as reduction in viral replication incubated for 3 days by viral plaque assay; format: functional, organism-based; conditions: Severe acute respiratory syndrome coronavirus 2, USA-WA1/2020, Vero C1008, 72 h
[7] = biological target: T1, Replicase polyprotein 1ab; assay: Inhibition of His-tagged SARS-CoV-2 Main protease BetaCoV/Wuhan/WIV04/2019 expressed in Escherichia coli BL21 (DE3) using Dabcyl-KTSAVLQ/SGFRKME(Edan) as substrate followed by compound addition by FRET assay
[8] = biological target: T1, Replicase polyprotein 1ab; assay: Inhibition of recombinant N-terminal SARS-CoV-2 Main protease expressed in Escherichia coli using MCA-AVLQSGFR-Lys(Dnp)-Lys-NH2 as substrate incubated for 1 hr by FRET assay
[9] = biological target: T1, Replicase polyprotein 1ab; assay: Binding affinity to SARS-CoV-2 Main protease expressed in Escherichia coli BL21 (DE3) assessed as inhibition constant
[10] = Clearance in CD1 mouse at 5 mg/kg, ip; format: ADME, organism-based; conditions: in vivo
[11] = biological target: T1, Replicase polyprotein 1ab; assay: Inhibition of C-terminal GST-tagged SARS-CoV-2 Main protease by using MCA-AVLQSGFR(Dnp)-Lys-NH2 as fluorogenic substrate incubated for 15 mins followed by substrate addition by spectrophotometric analysis
[12] = biological target: T1, Replicase polyprotein 1ab; assay: Inhibition of N-terminal His6-tagged recombinant full length SARS-CoV-2 3CLpro expressed in Escherichia coli BL21(DE3) using (KTSAVLQSGFRKME) as fluorogenic substrate preincubated with compound for 10 mins followed by substrate addition by FRET assay
[13] = biological target: T1, Replicase polyprotein 1ab; assay: Inhibition of SARS-CoV-2 3CL protease by FRET assay
[14] = biological target: T1, Replicase polyprotein 1ab; assay: Inhibition of recombinant N-terminal GST-tagged SARS-Cov-2 Main protease
[15] = biological target: T1, Replicase polyprotein 1ab; assay: Inhibition of full length GST-tagged SARS-CoV-2 Main protease expressed in Escherichia coli
[16] = biological target: T1, Replicase polyprotein 1ab
[17] = Binding affinity to MERS-CoV MPro assessed as inhibition constant; design: species or system Middle East respiratory syndrome-related coronavirus
[18] = tested on: Middle East respiratory syndrome-related coronavirus; assay: Antiviral activity against MERS-CoV infected in Vero E6 cells assessed as reduction in viral replication measured after 48 hrs by qRT-PCR assay; format: functional, organism-based; conditions: Vero C1008, 48 h
[19] = biological target: T1, Replicase polyprotein 1ab; assay: Inhibition of N-terminal GST-tagged SARS-CoV-2 Main protease expressed in Escherichia coli BL21 (DE3) incubated for 10 mins by FRET analysis
[20] = biological target: T1, Replicase polyprotein 1ab; assay: Inhibition of N-terminal full length GST-tagged SARS-CoV-2 3CLpro expressed in Escherichia coli BL21 (DE3) by using MCA-AVLQSGFR-Lys(Dnp)-Lys-NH as fluorogenic substrate preincubated with compound for 10 mins followed by substrate addition by FRET assay
[21] = biological target: T1, Replicase polyprotein 1ab; assay: Binding affinity to N-terminal full length SARS-CoV-2 Main protease assessed as inhibition constant

CC1(C)[C@H](C(=O)OCc2ccc([N+](=O)[O-])cc2)C2C(=O)C(Br)(Br)[C@H]2[S+]1[O-] (stereo not given in full)
IC50 [1]: 500 nM

COc1cccc(-n2[se]c3ccccc3c2=O)c1
IC50 [2]: 4080 nM

C=CCn1ccc2c(C(=O)Oc3cncc(Cl)c3)cccc21
Ki [3]: 73 nM

C[C@H](NC(=O)OCc1ccccc1)C(=O)N[C@@H](C)C(=O)NN(CC(N)=O)C(=O)/C=C/C(=O)c1ccccc1
IC50 [4]: 490 nM

O=c1c2ccccc2[se]n1Cc1ccco1
IC50 [5]: 70 nM

O=C(N[C@@H](Cc1ccccc1)C(=O)N[C@@H](C[C@@H]1CCNC1=O)C(O)S(=O)(=O)O)OCc1ccccc1 (stereo not given in full)
EC50 [6]: 2060 nM

O=C(N[C@@H](CC1CC1)C(=O)N[C@@H](C[C@@H]1CCNC1=O)C(O)S(=O)(=O)O)OCc1cccc(F)c1 (stereo not given in full)
EC50 [6]: 570 nM
IC50 [7]: 70 nM

O=C[C@H](C[C@@H]1CCNC1=O)NC(=O)[C@@H]1[C@H]2CCC[C@H]2CN1C(=O)CCc1cc(F)cc(F)c1
IC50 [8]: 7 nM

Cc1c(Cl)cc(N2CCN(C(=O)c3cc(=O)[nH]c(=O)[nH]3)CC2)cc1Cl
Ki [9]: 1400 nM

O=C[C@H](C[C@@H]1CCNC1=O)NC(=O)[C@H](CC1CCCCC1)NC(=O)c1cc2ccccc2[nH]1
CL/F [10]: 17.4 mL/min/kg

C[n+]1c2cc(N)ccc2cc2ccc(N)cc21 [EUFLAVINE]
IC50 [11]: 5600 nM

COC(=O)CCC(CC(=O)[C@H](CC(=O)OC)NC(=O)OCc1ccccc1)C(=O)NC(C(=O)NC(CC(=O)OC)C(=O)CF)C(C)C (stereo not given in full)
IC50 [12]: 6810 nM

CCCCCCCCCC(=O)N[C@H]1[C@H](Oc2c3cc4cc2Oc2ccc(cc2Cl)[C@@H](O[C@@H]2O[C@H](CO)[C@@H](O)[C@H](O)[C@H]2NC(C)=O)[C@@H]2NC(=O)[C@H](NC(=O)[C@@H]4NC(=O)[C@H]4NC(=O)[C@H](Cc5ccc(c(Cl)c5)O3)NC(=O)[C@H](N)c3ccc(O)c(c3)Oc3cc(O)cc4c3)c3ccc(O)c(c3)-c3c(O[C@H]4O[C@H](CO)[C@@H](O)[C@H](O)[C@@H]4O)cc(O)cc3[C@@H](C(=O)O)NC2=O)O[C@H](CO)[C@@H](O)[C@@H]1O [TEICOPLANIN A2-3]
IC50 [13]: 1500 nM

CCOC(=O)[C@@H]1O[C@H]1C(=O)N(CCC(N)=O)NC(=O)[C@H](Cc1ccccc1)NC(=O)[C@H](CC(C)C)NC(=O)OCc1ccccc1
IC50 [4]: 960 nM

CCN(C[C@]1(C)CN(C(=O)c2nn(C)c3c2CCc2ccccc2-3)CCC1=O)C(=O)c1nn(C)c2c1CCc1ccccc1-2
IC50 [14]: 750 nM

CC(C)C[C@H](NC(=O)[C@@H](NC(=O)c1ccc(Cl)cc1)C(C)C)C(=O)N[C@H](C=O)C[C@@H]1CCCNC1=O
IC50 [15]: 140 nM

NC1CC1c1ccccc1 (stereo not given)
IC50 [16]: 8640 nM

CC(C)(C)OC(=O)CC[C@H](NC(=O)CNC(=O)OC(C)(C)C)C(=O)CCl (Boc-Gly-Glu(OtBu)-CH2Cl)
IC50 [4]: 1740 nM

O=C(NCc1cccs1)[C@@H]1CN(C(=O)CCl)CCN1c1ccc(Cl)c(Cl)c1
Ki [17]: 180 nM
EC50 [18]: 2640 nM

O=C(Oc1cncc(Cl)c1)c1cccs1
IC50 [19]: 80 nM

CC1(C)[C@H](C(=O)OCc2ccccc2)C2C(=O)C(Br)(Br)[C@H]2S1(=O)=O (stereo not given in full)
IC50 [1]: 700 nM

O=c1c(O)c(-c2ccc(O)c(O)c2)oc2cc(O)c(O)c(O)c12 [QUERCETAGETIN]
IC50 [20]: 1240 nM

C[C@H](NC(=O)[C@@H](c1cccnc1)N(C(=O)c1ccco1)c1ccc(-c2ccccc2)cc1)c1ccccc1
Ki [21]: 101000 nM
